Data on one molecule can be found in patent publication US20210045385A1, “PYRIDAZINONE-SUBSTITUTED KETOXIMES AS HERBICIDES” (FMC Corporation, priority 2018, published 2021).

Common to all, as to format: in vivo
Assay [1] has as its system foxtail, green (green foxtail, Setaria viridis). The experiment in a line: Test C preemergence, visual plant response rating. Conditions: 500 g ai/ha. Put shortly:
(§1)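 Visual injury on a 0 (no effect) to 100 (complete control) scale versus untreated controls, scored approximately 10 d after treatment under greenhouse conditions. Treatments used surfactant-containing non-phytotoxic solvent formulations, sprayed onto loam–sand soil preemergence or onto one- to two-leaf plants 2–10 cm tall postemergence.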

For assay [2], the system named is ragweed (common ragweed, Ambrosia artemisiifolia). Put plainly: Test C preemergence, visual plant response rating. Conditions: 500 g ai/ha. The essentials:
as §1

The subject of assay [3] is kochia (Bassia scoparia). The experiment in a line: Test C preemergence, visual plant response rating. Conditions: 500 g ai/ha. The essentials:
as §1

Assay [4] concerns Italian ryegrass (Lolium mutiflorum). Put plainly: Test C preemergence, visual plant response rating. Conditions: 500 g ai/ha. The essentials: as §1
The test system of assay [5] is barnyardgrass (Echinochloa crus-galli). The experiment in a line: Test C preemergence, visual plant response rating. Conditions: 500 g ai/ha. The essentials:
as §1

Assay [6] concerns pigweed (Amaranthus retroflexus). The experiment in a line: Test C preemergence, visual plant response rating. Conditions: 500 g ai/ha. Put shortly: as §1
The subject of assay [7] is foxtail, green (green foxtail, Setaria viridis). Put plainly: Test C postemergence, visual plant response rating. Conditions: 500 g ai/ha. Put shortly: as §1
Assay [8] has as its system ragweed (common ragweed, Ambrosia artemisiifolia). The experiment in a line: Test C postemergence, visual plant response rating. Conditions: Test C, postemergence, 500 g ai/ha. The essentials: as §1
Assay [9] concerns kochia (Bassia scoparia). The experiment in a line: Test C postemergence, visual plant response rating. Conditions: Test C, postemergence, 500 g ai/ha. Put shortly: as §1
Assay [10] relates to Italian ryegrass (Lolium mutiflorum). Put plainly: Test C postemergence, visual plant response rating. Conditions: Test C, postemergence, 500 g ai/ha. The essentials: as §1
Assay [11] concerns barnyardgrass (Echinochloa crus-galli). Put plainly: Test C postemergence, visual plant response rating. Conditions: Test C, postemergence, 500 g ai/ha. The essentials: as §1
The subject of assay [12] is blackgrass (Alopecurus myosuroides). Put plainly: Test C postemergence, visual plant response rating. Conditions: Test C, postemergence, 500 g ai/ha. Put shortly:
as §1

The subject of assay [13] is wheat (Triticum aestivum). The experiment in a line: Test C postemergence, visual plant response rating. Conditions: Test C, postemergence, 500 g ai/ha. Put shortly: as §1
The subject of the next assay is corn (Zea mays). Put plainly: Test C postemergence, visual plant response rating. Conditions: Test C, postemergence, 500 g ai/ha. Put shortly:
as §1

Assay [14] relates to pigweed (Amaranthus retroflexus). Put plainly: Test C postemergence, visual plant response rating. Conditions: Test C, postemergence, 500 g ai/ha. The essentials: as §1

In the case of `Cc1nn(C)c(=O)c(/C(=N/OCc2ccccc2)c2cccc(Cl)c2)c1O` [Compound 150], the “Foxtail, Green plant response rating (0 to 100 scale)” value in [1] and in assay [7] was 0 throughout. For the same molecule, the “Ragweed plant response rating (0 to 100 scale)” value in assay [2] stood at 80; in assay [8] it was 20. The “Kochia plant response rating (0 to 100 scale)” value in the assay with kochia (Bassia scoparia) [3] and in the assay on kochia (Bassia scoparia) [9] was 0 each time. The “Ryegrass, Italian plant response rating (0 to 100 scale)” value in [4] came to 0; in assay [10], 10. The “Barnyardgrass plant response rating (0 to 100 scale)” value in assay [5] and in [11] was 0 each time. For the same molecule, the “Pigweed plant response rating (0 to 100 scale)” value in assay [6] and in assay [14] was 0 in each case. Further, the “Blackgrass plant response rating (0 to 100 scale)” value in assay [12] worked out at 0. Besides, the “Wheat plant response rating (0 to 100 scale)” value in assay [13] is recorded as 0. Also, in the assay on corn (Zea mays), the “Corn plant response rating (0 to 100 scale)” value is given as 0.
